Source: ChEMBL document CHEMBL1146289, “1,5-Biaryl pyrrole derivatives as EP1 receptor antagonists: Structure-activity relationships of 4- and 5-substituted benzoic acid derivatives” (Bioorg Med Chem Lett, 2007)
Each block holds one molecule with its values, some of them ahead of it.

Tests used:
[1] = target: T1, Prostaglandin E2 receptor EP1 subtype (Homo sapiens, UniProt P34995); test: Displacement of [3H]PGE2 from human recombinant EP1 receptor expressed in CHO cell membranes
T1 sequence (P34995 whole entry): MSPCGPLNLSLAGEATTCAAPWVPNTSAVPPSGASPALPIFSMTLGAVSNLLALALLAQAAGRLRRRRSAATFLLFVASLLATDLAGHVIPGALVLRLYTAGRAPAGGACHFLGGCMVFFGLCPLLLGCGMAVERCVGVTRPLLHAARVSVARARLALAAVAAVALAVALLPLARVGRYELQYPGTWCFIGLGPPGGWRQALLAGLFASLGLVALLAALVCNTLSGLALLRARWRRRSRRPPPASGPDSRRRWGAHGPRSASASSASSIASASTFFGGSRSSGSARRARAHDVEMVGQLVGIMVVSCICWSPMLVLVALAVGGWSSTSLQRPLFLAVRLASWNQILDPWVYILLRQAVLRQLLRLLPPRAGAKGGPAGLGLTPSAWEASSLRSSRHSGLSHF

[2] = tested on: Rattus norvegicus; test: AUC (0-t) in rat at 3 mg/kg, po; assay type: ADME, organism-based, Plasma; set-up: dose 3 mg/kg, route oral; conditions: in vivo
[3] = Tmax in rat at 3 mg/kg, po; assay type: ADME, organism-based; set-up: dose 3 mg/kg, route oral; conditions: in vivo
[4] = Cmax in rat at 3 mg/kg, po; assay type: ADME, organism-based; set-up: dose 3 mg/kg, route oral; conditions: in vivo
[5] = tested on: Rattus norvegicus; test: Reversal of hypersensitivity in rat FCA model of inflammatory pain at 5 mg/kg, po; assay type: functional
[6] = species on record: Rattus norvegicus; test: Reversal of hypersensitivity in rat FCA model of inflammatory pain; assay type: functional
[7] = target: T2, Cytochrome P450 1A2 (Homo sapiens, UniProt P05177); test: Inhibition of CYP1A2; assay type: ADME
T2 sequence (P05177 whole entry): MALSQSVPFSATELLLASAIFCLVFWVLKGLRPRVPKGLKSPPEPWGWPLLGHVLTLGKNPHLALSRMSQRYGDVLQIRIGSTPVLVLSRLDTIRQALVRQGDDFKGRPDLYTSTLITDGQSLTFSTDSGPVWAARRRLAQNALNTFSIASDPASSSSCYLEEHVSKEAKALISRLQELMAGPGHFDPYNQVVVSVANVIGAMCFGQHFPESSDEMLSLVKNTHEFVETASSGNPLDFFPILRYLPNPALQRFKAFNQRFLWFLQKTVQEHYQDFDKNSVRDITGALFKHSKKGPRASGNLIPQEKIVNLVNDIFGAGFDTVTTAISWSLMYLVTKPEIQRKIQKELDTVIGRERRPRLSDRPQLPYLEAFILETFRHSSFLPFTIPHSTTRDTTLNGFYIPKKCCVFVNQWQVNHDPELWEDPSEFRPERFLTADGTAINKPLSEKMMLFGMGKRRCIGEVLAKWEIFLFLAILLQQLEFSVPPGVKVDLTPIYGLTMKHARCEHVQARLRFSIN

[8] = target: Cytochrome P450 2C9 (Homo sapiens, UniProt P11712); test: Inhibition of CYP2C9; assay type: ADME
Sequence of Cytochrome P450 2C9 (P11712 whole entry): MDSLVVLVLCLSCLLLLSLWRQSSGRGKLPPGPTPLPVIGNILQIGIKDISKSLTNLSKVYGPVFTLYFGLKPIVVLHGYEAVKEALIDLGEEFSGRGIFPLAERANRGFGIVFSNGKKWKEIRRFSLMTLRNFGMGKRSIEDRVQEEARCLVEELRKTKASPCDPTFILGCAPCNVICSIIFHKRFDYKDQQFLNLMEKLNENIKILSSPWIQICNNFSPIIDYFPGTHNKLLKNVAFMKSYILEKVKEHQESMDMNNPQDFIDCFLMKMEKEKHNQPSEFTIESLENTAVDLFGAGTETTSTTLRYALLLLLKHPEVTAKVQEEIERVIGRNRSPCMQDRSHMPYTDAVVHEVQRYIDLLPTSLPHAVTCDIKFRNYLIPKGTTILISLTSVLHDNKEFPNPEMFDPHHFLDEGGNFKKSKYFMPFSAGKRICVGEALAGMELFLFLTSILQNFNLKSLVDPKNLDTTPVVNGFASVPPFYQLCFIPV

[9] = target: Cytochrome P450 2C19 (Homo sapiens, UniProt P33261); test: Inhibition of CYP2C19; assay type: ADME
Sequence of Cytochrome P450 2C19 (P33261 whole entry): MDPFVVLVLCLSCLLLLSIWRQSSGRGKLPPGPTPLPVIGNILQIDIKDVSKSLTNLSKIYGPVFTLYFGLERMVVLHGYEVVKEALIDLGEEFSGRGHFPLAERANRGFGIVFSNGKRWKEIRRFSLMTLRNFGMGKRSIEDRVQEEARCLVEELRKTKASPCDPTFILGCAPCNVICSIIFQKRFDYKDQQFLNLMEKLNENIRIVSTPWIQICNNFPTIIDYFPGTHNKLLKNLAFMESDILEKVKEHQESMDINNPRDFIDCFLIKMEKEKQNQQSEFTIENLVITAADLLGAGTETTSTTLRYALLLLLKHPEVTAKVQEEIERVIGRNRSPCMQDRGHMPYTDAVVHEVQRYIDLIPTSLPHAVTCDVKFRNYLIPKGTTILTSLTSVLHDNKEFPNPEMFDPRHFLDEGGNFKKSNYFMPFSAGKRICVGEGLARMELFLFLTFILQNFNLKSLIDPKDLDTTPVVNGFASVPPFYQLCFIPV

[10] = target: Prostaglandin E2 receptor EP4 subtype (Homo sapiens, UniProt P35408); test: Inhibition of EP4 receptor
Sequence of Prostaglandin E2 receptor EP4 subtype (P35408 whole entry): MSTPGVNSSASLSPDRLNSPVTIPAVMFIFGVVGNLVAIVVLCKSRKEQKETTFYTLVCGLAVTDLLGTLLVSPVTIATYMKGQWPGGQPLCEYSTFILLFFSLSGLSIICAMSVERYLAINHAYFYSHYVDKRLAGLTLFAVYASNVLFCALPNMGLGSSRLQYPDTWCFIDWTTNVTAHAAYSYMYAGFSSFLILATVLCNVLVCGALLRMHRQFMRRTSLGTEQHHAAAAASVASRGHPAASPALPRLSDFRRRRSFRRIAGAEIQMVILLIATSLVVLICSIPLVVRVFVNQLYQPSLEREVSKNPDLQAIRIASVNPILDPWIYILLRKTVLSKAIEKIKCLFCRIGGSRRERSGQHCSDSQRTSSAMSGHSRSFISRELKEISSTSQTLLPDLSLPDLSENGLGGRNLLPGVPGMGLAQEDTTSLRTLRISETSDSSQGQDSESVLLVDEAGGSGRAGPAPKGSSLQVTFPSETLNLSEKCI

[11] = target: Cytochrome P450 2D6 (Homo sapiens, UniProt P10635); test: Inhibition of CYP2D6; assay type: ADME
Sequence of Cytochrome P450 2D6 (P10635 whole entry): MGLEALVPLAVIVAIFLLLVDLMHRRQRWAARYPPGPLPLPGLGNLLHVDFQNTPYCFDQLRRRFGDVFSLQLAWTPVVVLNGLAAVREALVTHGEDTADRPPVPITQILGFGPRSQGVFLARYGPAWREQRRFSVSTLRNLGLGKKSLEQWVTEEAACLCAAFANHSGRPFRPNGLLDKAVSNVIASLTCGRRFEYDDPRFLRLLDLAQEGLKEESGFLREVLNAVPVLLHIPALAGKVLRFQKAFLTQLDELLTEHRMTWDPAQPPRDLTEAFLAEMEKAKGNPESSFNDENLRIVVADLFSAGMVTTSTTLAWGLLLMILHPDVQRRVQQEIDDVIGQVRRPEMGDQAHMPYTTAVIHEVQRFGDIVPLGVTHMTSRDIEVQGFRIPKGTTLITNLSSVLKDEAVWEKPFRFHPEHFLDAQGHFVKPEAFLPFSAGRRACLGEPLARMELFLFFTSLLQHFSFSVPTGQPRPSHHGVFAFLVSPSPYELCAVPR

[12] = target: Cytochrome P450 3A4 (Homo sapiens, UniProt P08684); test: Inhibition of CYP3A4; assay type: ADME
Sequence of Cytochrome P450 3A4 (P08684 whole entry): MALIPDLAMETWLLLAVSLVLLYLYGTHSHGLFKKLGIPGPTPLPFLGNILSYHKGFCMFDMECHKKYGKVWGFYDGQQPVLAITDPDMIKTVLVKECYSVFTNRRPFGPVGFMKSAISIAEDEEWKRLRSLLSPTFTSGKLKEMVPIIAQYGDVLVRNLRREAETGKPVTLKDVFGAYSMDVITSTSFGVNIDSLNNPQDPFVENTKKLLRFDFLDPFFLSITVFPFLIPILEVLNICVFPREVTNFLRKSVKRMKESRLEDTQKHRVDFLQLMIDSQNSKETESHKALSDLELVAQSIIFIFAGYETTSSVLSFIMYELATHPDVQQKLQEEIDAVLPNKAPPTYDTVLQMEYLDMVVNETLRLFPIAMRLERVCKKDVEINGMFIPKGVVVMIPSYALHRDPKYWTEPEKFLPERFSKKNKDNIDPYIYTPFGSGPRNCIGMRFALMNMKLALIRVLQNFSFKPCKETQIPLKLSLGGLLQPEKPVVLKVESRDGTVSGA

[13] = target: T1, Prostaglandin E2 receptor EP1 subtype; test: Inhibition of EP1 receptor expressed in CHO cells assessed as calcium mobilization by FLIPR assay; assay type: functional, cell-based
[14] = target: T3, Prostaglandin E2 receptor EP3 subtype (Homo sapiens, UniProt P43115); test: Inhibition of EP3 receptor expressed in CHO cells assessed as calcium mobilization by FLIPR assay; assay type: functional, cell-based
T3 sequence (P43115 whole entry): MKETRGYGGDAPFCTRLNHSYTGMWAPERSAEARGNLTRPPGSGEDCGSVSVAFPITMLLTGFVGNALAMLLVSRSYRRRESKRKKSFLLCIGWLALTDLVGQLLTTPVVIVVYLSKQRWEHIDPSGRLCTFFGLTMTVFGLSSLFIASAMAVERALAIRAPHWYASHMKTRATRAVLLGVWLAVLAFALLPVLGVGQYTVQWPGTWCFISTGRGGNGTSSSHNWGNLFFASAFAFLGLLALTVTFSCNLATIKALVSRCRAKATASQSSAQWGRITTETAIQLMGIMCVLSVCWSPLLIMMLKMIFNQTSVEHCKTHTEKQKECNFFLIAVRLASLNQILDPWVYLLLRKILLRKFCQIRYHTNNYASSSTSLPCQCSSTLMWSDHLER

[15] = target: T4, Thromboxane A2 receptor (Homo sapiens, UniProt P21731); test: Inhibition of TP receptor
T4 sequence (P21731 whole entry): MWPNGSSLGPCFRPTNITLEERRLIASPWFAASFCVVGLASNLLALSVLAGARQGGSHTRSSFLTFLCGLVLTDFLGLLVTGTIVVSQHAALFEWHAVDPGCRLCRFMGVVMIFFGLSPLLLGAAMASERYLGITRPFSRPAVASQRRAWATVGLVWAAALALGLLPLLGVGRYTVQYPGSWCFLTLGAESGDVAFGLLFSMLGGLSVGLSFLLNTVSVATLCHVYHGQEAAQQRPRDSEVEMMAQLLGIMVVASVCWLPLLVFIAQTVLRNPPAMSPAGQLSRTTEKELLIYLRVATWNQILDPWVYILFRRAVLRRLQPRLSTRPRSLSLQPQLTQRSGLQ

[16] = target: T5, Thromboxane A2 receptor (Homo sapiens) (UniProt P21731)
T5 sequence (whole entry): T4 sequence (P21731 whole entry)

SMILES: COC(=O)Nc1cc(C(=O)O)cc(-n2c(C)ccc2-c2cc(Cl)ccc2OCc2ccccc2)c1
IC50 [1]: 5.01 nM

SMILES: Cc1ccc(-c2cc(Cl)ccc2OCc2ccccc2)n1-c1cc(N)cc(C(=O)O)c1
IC50 [1]: 3.98 nM

SMILES: Cc1ccc(-c2cc(Br)ccc2OCc2ccc(F)cc2F)n1-c1cc(C(=O)O)cc(C(F)(F)F)c1
IC50 [1]: 12.6 nM

SMILES: Cc1ccc(-c2cc(C(F)(F)F)ccc2OCc2ccc(F)cc2)n1-c1cc(C(=O)O)cc(N2CCCS2(=O)=O)c1
IC50 [1]: 7.94 nM

SMILES: Cc1ccc(-c2cc(Cl)ccc2OCc2ccccc2)n1-c1cc(Br)cc(C(=O)O)c1
IC50 [1]: 5.01 nM
AUC [2]: 6 kg·min/L
Tmax [3]: 30 min
Cmax [4]: 310 nM

SMILES: Cc1ccc(-c2cc(Cl)ccc2OCc2ccccc2)n1-c1cc(C(=O)O)cc(N2CCCS2(=O)=O)c1
IC50 [1]: 5.01 nM

SMILES: Cc1ccc(-c2cc(Br)ccc2OCc2ccc(F)cc2F)n1-c1cc(Cl)cc(C(=O)O)c1
IC50 [1]: 3.98 nM

SMILES: CC(=O)Nc1cc(C(=O)O)cc(-n2c(C)ccc2-c2cc(F)ccc2OCc2ccc(F)cc2)c1
IC50 [1]: 3.98 nM
AUC [2]: 60 kg·min/L
Tmax [3]: 30 min
Cmax [4]: 2950 nM
Activity [5]: 55%

SMILES: Cc1ccc(-c2cc(Cl)ccc2OCc2ccc(F)cc2F)n1-c1cc(Br)cc(C(=O)O)c1
IC50 [1]: 5.01 nM

SMILES: CCOc1ccc(C(=O)O)cc1-n1c(C)ccc1-c1cc(Cl)ccc1OCc1ccccc1
IC50 [1]: 126 nM

SMILES: Cc1ccc(-c2cc(Cl)ccc2OCc2ccc(F)cc2F)n1-c1cc(Cl)cc(C(=O)O)c1
IC50 [1]: 3.98 nM

SMILES: Cc1ccc(-c2cc(Cl)ccc2OCc2ccc(F)cc2)n1-c1cc(C(=O)O)ccc1Cl
IC50 [1]: 316 nM

SMILES: COc1ccc(C(=O)O)cc1-n1c(C)ccc1-c1cc(Cl)ccc1OCc1ccccc1
IC50 [1]: 251 nM

SMILES: Cc1ccc(-c2cc(Cl)ccc2OCc2ccc(F)cc2F)n1-c1cc(C(=O)O)ccc1Cl
IC50 [1]: 158 nM

SMILES: Cc1ccc(-c2cc(Cl)ccc2OCc2ccc(F)cc2F)n1-c1cc(C(=O)O)cc(C(F)(F)F)c1
IC50 [1]: 10 nM

SMILES: Cc1ccc(-c2cc(Cl)ccc2OCc2ccc(F)cc2F)n1-c1cc(C(=O)O)ccc1F
IC50 [1]: 6.31 nM
AUC [2]: 4 kg·min/L
Tmax [3]: 30 min
Cmax [4]: 230 nM

SMILES: Cc1ccc(-c2cc(Br)ccc2OCc2ccc(F)cc2)n1-c1cc(C(=O)O)ccc1F
IC50 [1]: 6.31 nM
AUC [2]: 6 kg·min/L
Tmax [3]: 30 min
Cmax [4]: 230 nM

SMILES: Cc1ccc(-c2cc(C(F)(F)F)ccc2OCc2ccccc2)n1-c1cc(C(=O)O)ccc1F
IC50 [1]: 6.31 nM

SMILES: Cc1ccc(-c2cc(Br)ccc2OCc2ccc(F)cc2F)n1-c1cc(C(=O)O)cc(N2CCCC2=O)c1
IC50 [1]: 2 nM

SMILES: Cc1ccc(-c2cc(Br)ccc2OCc2ccccc2)n1-c1cc(N)cc(C(=O)O)c1
IC50 [1]: 3.16 nM

SMILES: CC(=O)Nc1cc(C(=O)O)cc(-n2c(C)ccc2-c2cc(Cl)ccc2OCc2ccc(F)cc2)c1
IC50 [1]: 2.51 nM
AUC [2]: 20 kg·min/L
Tmax [3]: 30 min
Cmax [4]: 2080 nM
Activity [5]: 94%

Continued, in another order:

IC50 [1]: 0.794 nM
SMILES: CC(=O)Nc1cc(C(=O)O)cc(-n2c(C)ccc2-c2cc(Br)ccc2OCc2ccc(F)cc2)c1

IC50 [1]: 0.501 nM
AUC [2]: < 1 kg·min/L
Tmax [3]: 30 min
Cmax [4]: 50 nM
SMILES: Cc1ccc(-c2cc(Br)ccc2OCc2ccc(F)cc2F)n1-c1cc(N)cc(C(=O)O)c1

IC50 [1]: 1.26 nM
SMILES: CC(=O)Nc1cc(C(=O)O)cc(-n2c(C)ccc2-c2cc(Br)ccc2OCc2ccccc2)c1

IC50 [1]: 1.58 nM
SMILES: Cc1ccc(-c2cc(Cl)ccc2OCc2ccc(F)cc2)n1-c1cc(NS(C)(=O)=O)cc(C(=O)O)c1

IC50 [1]: 1.26 nM
Tmax [3]: 42 min
Cmax [4]: 20 nM
SMILES: CC(=O)Nc1cc(C(=O)O)cc(-n2c(C)ccc2-c2cc(C(F)(F)F)ccc2OCc2ccccc2)c1

IC50 [1]: 0.398 nM
AUC [2]: 21 kg·min/L
Tmax [3]: 30 min
Cmax [4]: 1410 nM
IC50 [7]: ≥ 18000 nM
IC50 [8]: ≥ 18000 nM
IC50 [9]: ≥ 18000 nM
IC50 [10]: 158 nM
IC50 [11]: ≥ 18000 nM
IC50 [12]: ≥ 18000 nM
Ki [13]: 0.1 nM
Ki [14]: 501 nM
IC50 [15]: 2.51 nM
pKb [16]: 9
SMILES: CC(=O)Nc1cc(C(=O)O)cc(-n2c(C)ccc2-c2cc(Br)ccc2OCc2ccc(F)cc2F)c1
Activity [5]: 72%
ED50 [6]: 1.1 mg/kg

IC50 [1]: 1.58 nM
SMILES: CC(=O)Nc1cc(C(=O)O)cc(-n2c(C)ccc2-c2cc(I)ccc2OCc2ccc(F)cc2F)c1

IC50 [1]: 1.26 nM
SMILES: Cc1ccc(-c2cc(Br)ccc2OCc2ccc(F)cc2F)n1-c1cc(C(=O)O)cc(N2CCCCC2=O)c1

IC50 [1]: 2 nM
AUC [2]: 8 kg·min/L
Tmax [3]: 30 min
Cmax [4]: 580 nM
SMILES: CC(=O)Nc1cc(C(=O)O)cc(-n2c(C)ccc2-c2cc(Cl)ccc2OCc2ccccc2)c1

IC50 [1]: 1.26 nM
SMILES: CC(=O)N(C)c1cc(C(=O)O)cc(-n2c(C)ccc2-c2cc(Br)ccc2OCc2ccc(F)cc2F)c1
